Where “and” joins values, the source holds several entries; their conditions need not be identical. Equal values may be shown once.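 96-well plates; 48 h exposure; 5 concentrations. Endpoints by linear interpolation between flanking doses. Not reached: highest tested concentration assigned. GI50: concentration for 50% inhibition of growth.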 Calls of active or inactive are those of the source. Rule as the data show it: active = GI50 up to about 1.1 µM and inactive = higher.

These results are taken from ChEMBL document CHEMBL1201862, “PubChem BioAssay data set” (2004).

Test systems include A549; HOP-62; HT-29; M14; MOLT-4; OVCAR-5; RXF 393; SF-295; SK-MEL-5; SK-OV-3; SNB-19; T47D; UACC-257; CCRF-CEM; HCT-116; MCF7; NCI-H522; SW-620; NCI/ADR-RES; OVCAR-4.
Holding throughout (assay): NCI-60 cell line screen, 48 h

`COC(=O)C1=COC(C)C2CN3CCc4c([nH]c5cc(OC)c(OC)cc45)C3CC12` (configuration not stated): the GI50 was 96.8 µM (inactive) and 49.5 µM (inactive) in the test with A549; 89.7 µM (inactive) in the test with HOP-62; 34.2 µM (inactive) and 34.7 µM (inactive) with HT-29; > 100 µM (inactive) and 65.9 µM (inactive) in the test with M14; 35.5 µM (inactive) and 28.6 µM (inactive) in the test on MOLT-4; > 100 µM (inactive) with OVCAR-5. Further, the GI50 in the test with RXF 393 is 15.3 µM (inactive); with SF-295, 59.4 µM (inactive) and 56.1 µM (inactive); in the test with SK-MEL-5, 50.4 µM (inactive) and 36.8 µM (inactive); with SK-OV-3, > 100 µM (inactive); in the test with SNB-19, 66.8 µM (inactive) and 75.3 µM (inactive); with T47D, 40.6 µM (inactive) and 34.6 µM (inactive). Also, the GI50 in the test on UACC-257 is > 100 µM (inactive).
`C=CCOCn1ccc(N)nc1=O`: the GI50 with A549, with CCRF-CEM, with HCT-116, in the test with HOP-62, in the test on HT-29 and with M14 was > 100 µM (inactive) throughout. The GI50 in the test on MCF7, with MOLT-4, in the test with NCI-H522, in the test with SF-295, in the test with SK-MEL-5 and in the test with SK-OV-3 was > 100 µM (inactive) throughout. Also, the GI50 with SNB-19, in the test with SW-620, in the test with T47D and with UACC-257 was > 100 µM (inactive) in each case.
As to `CN1CCN(c2ccc3nc(C4=C(O)C(=O)c5c(nc(CO)n5C)C4=O)[nH]c3n2)CC1`, the GI50 in the test on A549, in the test with CCRF-CEM, in the test on HCT-116, in the test with HOP-62, in the test with HT-29 and with M14 was > 100 µM (inactive) throughout. For the same compound, the GI50 was 56.2 µM (inactive) with MOLT-4; > 100 µM (inactive) in the test on NCI-H522; > 100 µM (inactive) in the test with NCI/ADR-RES; > 100 µM (inactive) with OVCAR-4; > 100 µM (inactive) in the test on OVCAR-5; 15.8 µM (inactive) with RXF 393. Further, the GI50 with SF-295 was > 100 µM (inactive); in the test with SK-OV-3, > 100 µM (inactive); in the test on SNB-19 it was > 100 µM (inactive); in the test with SW-620 it was > 100 µM (inactive); with T47D, 61.4 µM (inactive); in the test with UACC-257 it was > 100 µM (inactive).
On to `C=C1CC2OC2(C(=O)O[C@H]2CCC3[C@@H]4CCC5=CC(=O)CC[C@]5(C)C4CC[C@@]32C)C1=O` (some centres not stated), for which the GI50 in the test on A549 was 21.3 µM (inactive); in the test with CCRF-CEM, 0.804 µM (active); in the test with HCT-116 it was 5.81 µM (inactive); in the test on HOP-62, 21.4 µM (inactive); in the test with HT-29 it was 8.34 µM (inactive); in the test with M14 it was 7.23 µM (inactive). Moreover, the GI50 is 1.49 µM (inactive) in the test with MOLT-4; 2.47 µM (inactive) in the test with NCI-H522; 6.34 µM (inactive) in the test with OVCAR-4; 19.6 µM (inactive) with OVCAR-5; 4.43 µM (inactive) with RXF 393; 19.1 µM (inactive) in the test on SF-295. Further, the GI50 in the test on SK-MEL-5 is 11.8 µM (inactive); in the test on SK-OV-3, 20 µM (inactive); with SNB-19, 18.7 µM (inactive); with SW-620, 3.4 µM (inactive); with T47D it was 3.3 µM (inactive); in the test with UACC-257 it was 8.05 µM (inactive).
As to `CC(=O)C(=[N+]=[N-])C(=O)N(C)CCC#N`, the GI50 with A549, with CCRF-CEM, with HCT-116, in the test on HOP-62, with HT-29 and in the test on M14 was > 10 µM (inactive) in each case. Moreover, the GI50 in the test on MCF7, with MOLT-4, in the test on OVCAR-5, with RXF 393, in the test with SF-295 and in the test on SK-OV-3 was > 10 µM (inactive) each time. Also, the GI50 with SNB-19, with SW-620, in the test on T47D and in the test with UACC-257 was > 10 µM (inactive) throughout.
In the case of `C=C[C@]1(C)CC(=O)C(C(C)C=O)[C@]12C(=O)Oc1cccc(C)c1C2=O` (some centres not stated), the GI50 with A549 is 18 µM (inactive); in the test on CCRF-CEM it was 2.26 µM (inactive); in the test on HCT-116, 7.85 µM (inactive); in the test on HOP-62, 20.2 µM (inactive); in the test on HT-29, 13.7 µM (inactive); in the test with M14, 16.3 µM (inactive). The GI50 with MCF7 was 16.5 µM (inactive); with MOLT-4 it was 23.9 µM (inactive); in the test with NCI-H522, 3.72 µM (inactive); in the test on OVCAR-4, 17.2 µM (inactive); with OVCAR-5, 16.6 µM (inactive); in the test on RXF 393, 13.9 µM (inactive). In addition, the GI50 with SF-295 was 15.5 µM (inactive); in the test with SK-MEL-5 it was 13.2 µM (inactive); in the test with SK-OV-3 it was 16.6 µM (inactive); with SNB-19, 12.2 µM (inactive); with SW-620, 11.8 µM (inactive); in the test on T47D, 16.4 µM (inactive). Further, the GI50 in the test on UACC-257 is 17.6 µM (inactive).
Regarding `CN(C)c1ccc(/N=N/c2ccc3[nH]cnc3c2)cc1`, the GI50 in the test with A549 is 29.7 µM (inactive); in the test on CCRF-CEM it was 19.4 µM (inactive); in the test on HCT-116, 18 µM (inactive); in the test with HT-29, 16.1 µM (inactive); in the test with M14, 21.4 µM (inactive); in the test with MOLT-4 it was 21.8 µM (inactive). The GI50 in the test on NCI-H522 is 19.3 µM (inactive); in the test with NCI/ADR-RES, 41 µM (inactive); in the test on OVCAR-4, 24.2 µM (inactive); in the test with OVCAR-5 it was 26.5 µM (inactive); in the test on RXF 393 it was 27.1 µM (inactive); in the test on SF-295 it was 24.4 µM (inactive). In addition, the GI50 is 30.3 µM (inactive) in the test with SK-MEL-5; > 10 µM (inactive) in the test with SK-OV-3; 41.8 µM (inactive) in the test on SNB-19; 29.6 µM (inactive) in the test on SW-620; 29.5 µM (inactive) with T47D; 23 µM (inactive) with UACC-257.
Regarding `O=C(Nn1cnn2c(=O)c3ccccc3nc2c1=O)c1ccccc1`, the GI50 in the test with A549, with CCRF-CEM, in the test on HCT-116, with HOP-62, in the test on HT-29 and in the test on M14 was > 100 µM (inactive) in each case. The GI50 in the test on MCF7, in the test on NCI-H522, in the test on OVCAR-4, with OVCAR-5, with SF-295 and in the test on SK-MEL-5 was > 100 µM (inactive) throughout. Further, the GI50 with SK-OV-3, in the test on SNB-19, in the test on SW-620, with T47D and with UACC-257 was > 100 µM (inactive) in each case.
For `O=c1c(C(c2ccc(O)cc2)c2c(O)oc3ccccc3c2=O)c(O)oc2ccccc12`, the GI50 in the test on CCRF-CEM was 74.3 µM (inactive); in the test on HCT-116 it was > 100 µM (inactive); with HOP-62, 96.8 µM (inactive); in the test with HT-29, 97.1 µM (inactive); with NCI-H522, 22.5 µM (inactive); with NCI/ADR-RES it was > 100 µM (inactive). In addition, the GI50 is > 100 µM (inactive) in the test on OVCAR-4; 83.8 µM (inactive) with SK-MEL-5; 71.8 µM (inactive) with SNB-19; 44.5 µM (inactive) in the test with SW-620; > 100 µM (inactive) in the test on T47D; > 100 µM (inactive) with UACC-257.
